Here are results for two compounds from patent US20150037372A1, “pH-Responsive High-Density Lipoprotein-Like Particle Complex” (RESEARCH & BUSINESS FOUNDATION SUNGKYUNKWAN UNIVERSITY, priority 2012, published 2015).

“And” between values parts separate entries of the source, which are not always exact repeats. Equal entries are not always repeated.

For series [1], the system named is breast cancer cell line ZR-75-1. The experiment in a line: MTT cell viability assay, 72 hours. Type of series: cell-based. The following applies: ZR-75-1, overexpresses SR-B1, 72 hours. How it is done: (§1) The MTT assay was performed in the following manner: First, an MTT concentrate obtained by dissolving 3-(4,5-dimethyl-2-thiazolyl)-2,5-diphenyl-2H-tetrazolium bromide (MTT, Calbiochem) in PBS at a concentration of 5 mg/mL was filtered and diluted (10%) to prepare an MTT solution. Meanwhile, the medium and the drug were removed from the cells treated with the drug or the drug-encapsulating apoA-I, and then 100 μL of the prepared MIT solution was seeded into each well and allowed to react at 37° C. in 5% CO2 for 3 hours. After completion of the reaction, the medium and the MTT solution were removed, and 100 μL of 100% DMSO was seeded into each well and allowed to react at room temperature for 20 minutes under a light-shielded condition. After completion of the secondary reaction, the absorbance of the sample at 570 nm was measured using a spectrophotometer (Spectra M2, Molecular device), and the measured value was substituted into the following equation to determine cell viability: […]
(§2) In addition, the cancer cells were treated with free EpoB or the EpoB-encapsulating apoA-I at various EpoB concentrations for 72 hours, and the cell viability for each drug was measured using an MTT (3-(4,5-dimethylthiazol-2-yl)-2,5-diphenyltetrazolium bromide) assay. […]
In general terms: Tetrazolium dyes change colour on reduction, which living cells bring about.

The subject of series [2] is colorectal cancer cell line Caco-2. The experiment in a line: MTT cell viability assay, 72 hours. Type of series: cell-based. To be noted: Caco-2, overexpresses SR-B1, 72 hours. On the procedure:
as §1, §2

Series [3] has as its system ICR mice. The experiment in a line: Primary in vivo test using apoA-I with endotoxin content of more than 10,000 EU/mg (Example 7-2). To be noted: for body weight loss / ALT / AST / Liver (%): endotoxin-containing apoA-I test; for ALT / AST: serum; for Liver (%): weight of liver relative to body weight. On the procedure:
(§3) A solution containing the drug Epothilone B (EpoB) was sonicated in the presence of a surfactant (sodium cholate) to encapsulate the EpoB in micelles composed of the surfactant. Then, apoA-I was added to and mixed with the sonicated solution while the concentration of the surfactant was lowered below its critical micelle concentration by dilution. The remaining surfactant was removed by Bio-bead, and the remaining solution was subjected to centrifugation and size exclusion chromatography, thereby preparing an EpoB-encapsulating apoA-I (hereinafter referred to as ‘EpoB-rHDL’).
(§4) EpoB was dissolved in poly ethylene glycol 300 (PEG 300) and then diluted so that the final concentration of PEG 300 was 30% (v/v). In addition, 30% PEG 300 that is a medium for Epothilone B, and apoA-I were selected as negative controls.
(§5) Twenty-eight (seven per group) 6-week-old female ICR mice were purchased from Orientbio Inc. (Korea). The mice were subjected to veterinary inspection for general health conditions and were acclimated to the laboratory environment for 1 week. An animal test was performed in the Laboratory Animal Research Center, Sungkyunkwan University.
(§6) The test material was administered into the tail vein of the grouped ICR mice at a dose of 100 μL once a week for 4 weeks. To verify the toxicity and safety of the test material, the concentration of EpoB encapsulated in apoA-I was measured, and the poB-encapsulating apoA-I or the free EpoB was administered at a dose higher than the maximum tolerated dose of EpoB. For the first 2 weeks, the test material was administered to the ICR mice at a dose of 10 mg/kg, which corresponds four times the maximum tolerated dose of EpoB, and for the next 2 weeks, it was administered at a high EpoB dose of 81 mg/kg. The control apoA-I was administered at a dose corresponding to the concentration of apoA-I in the EpoB-encapsulating apoA-I.
(§7) To observe changes in the body weight of the mice during the test period, the body weight of the mice was measured every day after the start of the test, and diarrhea, hair loss and quadriplegia as the suspected side effects of epoB were observed.
(§8) For liver toxicity analysis, upon the death of the test animals or at the end of the test, the animals were anesthetized with a mixture of Zoletil and Rompun, and then sera were obtained by blood collection from the abdominal aorta. Alanine transferase (ALT) and aspartate transaminase (AST) in the sera were analyzed by an automatic chemistry analyzer.
(§9) Upon the death of the test animals or at the end of the test, the animals were anesthetized with a mixture of Zoletil and Rompun. Next, the liver was harvested and weighed, and the percentage of the weight of the liver relative to the body weight was comparatively analyzed. In addition, the stomach was harvested and observed to the naked eye.
In a primary test, an EpoB-encapsulating apoA-I was prepared using an apoA-I having an endotoxin content of more than 10,000 EU/mg and was administered to ICR mice once a week for 4 weeks.

Series [4] concerns ICR mice. Briefly: In vivo safety test with endotoxin-purified apoA-I (Example 7-3). How it is done: as §3, §4, §5, §6, §7, §8, §9
Using an apoA-I purified to have an endotoxin content of 5-10 EU/mg, an EpoB-encapsulating apoA-I was prepared according to the method described in Example 7-1(1).
EpoB and the EpoB-encapsulating apoA-I were administered at doses of 10 mg/kg and 81 mg/kg, which are higher than the maximum tolerated dose of EpoB.

[5] abbreviates: high dose 81 mg/kg, week 3 and 4.
[6] abbreviates: each ICR mouse (No. 1-7), * raised by hemolysis, listed as apoA-1.
Where [7] appears, read: group average (total), hemolysis values excluded.

As for `C/C(=C\c1csc(C)n1)[C@@H]1C[C@@H]2O[C@]2(C)CCC[C@H](C)[C@H](O)[C@@H](C)C(=O)C(C)(C)[C@@H](O)CC(=O)O1` [EpoB, Epothilone B, reference compound], the “cell viability compared to treatment with the EpoB-encapsulating apoA-I” value in series [1] is on record as “higher cell viability”. Besides, the “cell viability compared to treatment with the EpoB-encapsulating apoA-I” value in series [2] was “higher cell viability”. Moreover, the survival rate in the series on ICR mice [3] (22 days after the start of administration, tail vein once a week, endotoxin-containing apoA-I) is 100%. Also, in the series on ICR mice [3], the body weight loss entry is on record as “showed a body weight loss”, the ALT is 18.1 ± .38 U/L, the AST was determined as 45.6 ± 9.3 U/L and the “Liver (%)” value came to 4.7 ± 0.3%. In addition, the “adverse effects in appearance examination” value with ICR mice [4] (10 mg/kg at week 1 and week 2) was “no adverse effects were observed”. Besides, in the series with ICR mice [4] (autopsy), the “gastric hypersensitivity caused by abdominal lymphadenopathy” value is on record as “observed in the control group”. Moreover, in the series with ICR mice [4] (each ICR mouse (No. 1-7)), the “Liver (%)” value is 3.45% and 4.19% and 4.85% and 6.48% and 3.79% and 5.12% and 4.33%. In the series with ICR mice [4] (setting [5]), the hair loss result is on record as “hair loss occurred”; the quadriplegia entry is recorded as “quadriplegia”; the “survival of the mice” value is “dead at week 3 and week 4”. Moreover, in the series on ICR mice [4] (high dose 81 mg/kg, week 3 and 4, EpoB values are of individual animals, 81 mg/kg), the body weight loss entry is “about 25% and 7-17% and about 11% and 11.5%”. For the same compound, the “decrease of AST/ALT ratio compared to control group administered with EpoB” value with ICR mice [4] (mouse, in vivo) is on record as “about 47%”.

Take “apoA-I: recombinant His-tagged human apolipoprotein A-I, 28 kDa, 243 amino acids; carrier protein and negative control”: in the series on ICR mice [3], the body weight loss result was “higher body weight loss”, the ALT was 34.4 ± 16.9 U/L, the AST worked out at 52.9 ± 13.2 U/L and the “Liver (%)” value is recorded as 6 ± 1.1%. The toxicity entry in the series on ICR mice [3] (once a week for 4 weeks, apoA-I with endotoxin more than 10,000 EU/mg) was “toxicity was observed”. Besides, in the series with ICR mice [4] (setting [6]), the ALT was 27 U/L and 25 U/L and 29 U/L and 21 U/L and 19 U/L and 15 U/L and 16 U/L; the AST was 64 U/L and 73 U/L and 56 U/L and 48 U/L and 69 U/L and 41 U/L and 49 U/L; the AST/ALTT was 2.37 and 2.92 and 1.93 and 2.29 and 3.63 and 2.73 and 3.06. For the same compound, in the series with ICR mice [4] (each ICR mouse (No. 1-7), listed as apoA-1), the “Liver (%)” value is 3.83% and 3.55% and 4.87% and 3.42% and 4.03% and 5% and 4.13%. For the same compound, the “Liver (%)” value with ICR mice [4] (group average (total)) stood at 4.12 ± 0.57%. In the series with ICR mice [4] (setting [7]), this compound returned an ALT of 21.71 ± 5.03 U/L, an AST of 57.14 ± 11.03 U/L and an AST/ALT of 2.70 ± 0.52. Also, in the series with ICR mice [4] (high dose of about 266 mg/kg), the “survival, body weight change and hair loss” value is “did not affect the survival, body weight change and hair loss”.
